# Tested on: phospho (S293) BCKDHA in human skeletal myocytes
# Experiment: Phospho BCKDHA Alpha Surefire Cell Assay
# Assay type: cell-based
# Details: 60 minutes with compound, geometric mean
structure (smiles),measurement,setting,value
"COc1c(F)cc(Cl)c(-c2c(C(=O)O)sc3cc(F)ccc23)c1F (atropisomer, axis not shown) [Example 15, 3-(6-Chloro-2,4-difluoro-3-methoxyphenyl)-6-fluoro-1-benzothiophene-2-carboxylic acid, ATROP-1]",IC50,,> 60 µM
"COc1c(F)cc(Cl)c(-c2c(C(=O)O)sc3cc(F)ccc23)c1F (atropisomer, axis not shown) [Example 16, 3-(6-Chloro-2,4-difluoro-3-methoxyphenyl)-6-fluoro-1-benzothiophene-2-carboxylic acid, ATROP-2]",IC50,,0.015 µM
"C[C@@H]1CCc2cc(-c3c(C(=O)O)sc4cc(Cl)ccc34)ccc2O1 (single isomer, unassigned) [Example 41, 6-chloro-3-(2-methyl-3,4-dihydro-2H-1-benzopyran-6-yl)-1-benzothiophene-2-carboxylic acid, ENANT-1]",IC50,"Homo sapiens, 1 h",> 40 µM
"C[C@@H]1CCc2cc(-c3c(C(=O)O)sc4cc(Cl)ccc34)ccc2O1 (single isomer, unassigned) [Example 42, 6-chloro-3-(2-methyl-3,4-dihydro-2H-1-benzopyran-6-yl)-1-benzothiophene-2-carboxylic acid, ENANT-2]",IC50,,> 24 µM
"C[C@@H]1CCc2cc(-c3c(C(=O)O)sc4cc(F)ccc34)ccc2O1 (single isomer, unassigned) [Example 43, 6-fluoro-3-(2-methyl-3,4-dihydro-2H-1-benzopyran-6-yl)-1-benzothiophene-2-carboxylic acid, ENANT-1]",IC50,"Homo sapiens, 1 h",> 60 µM
"C[C@@H]1CCc2cc(-c3c(C(=O)O)sc4cc(F)ccc34)ccc2O1 (single isomer, unassigned) [Example 44, 6-fluoro-3-(2-methyl-3,4-dihydro-2H-1-benzopyran-6-yl)-1-benzothiophene-2-carboxylic acid, ENANT-2]",IC50,,> 56 µM
"C[C@@H]1CCc2cc(-c3c(C(=O)O)sc4ccccc34)ccc2O1 (single isomer, unassigned) [Example 45, 3-(2-methyl-3,4-dihydro-2H-1-benzopyran-6-yl)-1-benzothiophene-2-carboxylic acid, ENANT-1]",IC50,,> 60 µM
"C[C@@H]1CCc2cc(-c3c(C(=O)O)sc4ccccc34)ccc2O1 (single isomer, unassigned) [Example 46, 3-(2-methyl-3,4-dihydro-2H-1-benzopyran-6-yl)-1-benzothiophene-2-carboxylic acid, ENANT-2]",IC50,,> 29 µM
"C[C@H]1CCc2ccc(-c3c(C(=O)O)sc4cc(F)ccc34)cc2O1 (single isomer, unassigned) [Example 57, 6-fluoro-3-(2-methyl-3,4-dihydro-2H-1-benzopyran-7-yl)-1-benzothiophene-2-carboxylic acid, ENANT-1]",IC50,"Homo sapiens, 1 h",> 60 µM
"C[C@@H]1CCc2cc(-c3c(C(=O)O)sc4cc(F)ccc34)c(F)cc2O1 (single isomer, unassigned) [Example 68, 6-fluoro-3-(7-fluoro-2-methyl-3,4-dihydro-2H-1-benzopyran-6-yl)-1-benzothiophene-2-carboxylic acid, ENANT-1]",IC50,"Homo sapiens, 1 h",6 µM
"C[C@@H]1CCc2cc(-c3c(C(=O)O)sc4cc(F)ccc34)c(F)cc2O1 (single isomer, unassigned) [Example 69, 6-fluoro-3-(7-fluoro-2-methyl-3,4-dihydro-2H-1-benzopyran-6-yl)-1-benzothiophene-2-carboxylic acid, ENANT-2]",IC50,,3.6 µM
"C[C@@H]1CCc2cc(-c3c(C(=O)O)sc4cc(F)ccc34)cc(F)c2O1 (single isomer, unassigned) [Example 72, 6-fluoro-3-(8-fluoro-2-methyl-3,4-dihydro-2H-1-benzopyran-6-yl)-1-benzothiophene-2-carboxylic acid, ENANT-1]",IC50,"Homo sapiens, 1 h",4.5 µM
"C[C@@H]1CCc2c(ccc(-c3c(C(=O)O)sc4cc(F)ccc34)c2F)O1 (single isomer, unassigned) [Example 77, 6-fluoro-3-(5-fluoro-2-methyl-3,4-dihydro-2H-1-benzopyran-6-yl)-1-benzothiophene-2-carboxylic acid, ENANT-1]",IC50,,8.6 µM
"C[C@@H]1CCc2c(ccc(-c3c(C(=O)O)sc4cc(F)ccc34)c2F)O1 (single isomer, unassigned) [Example 78, 6-fluoro-3-(5-fluoro-2-methyl-3,4-dihydro-2H-1-benzopyran-6-yl)-1-benzothiophene-2-carboxylic acid, ENANT-2]",IC50,,3.9 µM
"O=C(O)c1sc2cc(F)ccc2c1-c1c(F)cc2c(c1F)CCCO2 [Example 1, 3-(5,7-Difluoro-3,4-dihydro-2H-1-benzopyran-6-yl)-6-fluoro-1-benzothiophene-2-carboxylic acid]",IC50,"Homo sapiens, 1 h",0.43 µM
"CC1CCc2c(cc(F)c(-c3c(C(=O)O)sc4cc(F)ccc34)c2F)O1 (stereo not drawn) [Example 3, 3-(5,7-Difluoro-2-methyl-3,4-dihydro-2H-1-benzopyran-6-yl)-6-fluoro-1-benzothiophene-2-carboxylic acid]",IC50,"Homo sapiens, 1 h",1 µM
"O=C(O)c1sc2c(F)c(F)ccc2c1-c1ccccc1 [Example 4, 6,7-Difluoro-3-phenyl-1-benzothiophene-2-carboxylic acid]",IC50,"Homo sapiens, 1 h",> 60 µM
"O=C(O)c1sc2cc(F)cc(F)c2c1-c1ccccc1 [Example 5, Ammonium 4,6-difluoro-3-phenyl-1-benzothiophene-2-carboxylate]",IC50,"Homo sapiens, 1 h",> 60 µM
"O=C(O)c1sc2cc(F)ccc2c1-c1cc(Cl)c(Cl)cc1F [Example 7, 3-(4,5-Dichloro-2-fluorophenyl)-6-fluoro-1-benzothiophene-2-carboxylic acid]",IC50,"Homo sapiens, 1 h",0.094 µM
"Cc1ncc(F)c(-c2c(C(=O)O)sc3cc(F)ccc23)c1F [Example 8, 3-(3,5-Difluoro-2-methylpyridin-4-yl)-6-fluoro-1-benzothiophene-2-carboxylic acid]",IC50,"Homo sapiens, 1 h",0.72 µM
"Cc1c(F)c(F)cc(-c2c(C(=O)O)sc3cc(Cl)ccc23)c1F [Example 10, 6-Chloro-3-(2,4,5-trifluoro-3-methylphenyl)-1-benzothiophene-2-carboxylic acid]",IC50,"Homo sapiens, 1 h",0.066 µM
"COc1c(F)c(F)cc(-c2c(C(=O)O)sc3cc(Cl)ccc23)c1F [Example 12, Ammonium 6-chloro-3-(2,4,5-trifluoro-3-methoxyphenyl)-1-benzothiophene-2-carboxylate]",IC50,"Homo sapiens, 1 h",0.11 µM
"COc1c(F)ccc(-c2c(C(=O)O)sc3cc(Cl)ccc23)c1F [Example 13, 6-Chloro-3-(2,4-difluoro-3-methoxyphenyl)-1-benzothiophene-2-carboxylic acid]",IC50,"Homo sapiens, 1 h",0.048 µM
"COc1c(F)cc(Cl)c(-c2c(C(=O)O)sc3cc(F)ccc23)c1F [Example 14, 3-(6-Chloro-2,4-difluoro-3-methoxyphenyl)-6-fluoro-1-benzothiophene-2-carboxylic acid]",IC50,"Homo sapiens, 1 h",0.023 µM
"COc1c(F)c(F)cc(-c2c(C(=O)O)oc3cc(F)ccc23)c1F [Example 17, 6-Fluoro-3-(2,4,5-trifluoro-3-methoxyphenyl)-1-benzofuran-2-carboxylic acid]",IC50,"Homo sapiens, 1 h",0.88 µM
"COc1c(F)c(F)cc(-c2c(C(=O)O)oc3cc(Cl)ccc23)c1F [Example 18, 6-Chloro-3-(2,4,5-trifluoro-3-methoxyphenyl)-1-benzofuran-2-carboxylic acid]",IC50,"Homo sapiens, 1 h",0.57 µM
"O=C(O)c1sc2cc(F)ccc2c1-c1ccc(F)c(F)c1F [Example 19, 6-Fluoro-3-(2,3,4-trifluorophenyl)-1-benzothiophene-2-carboxylic acid]",IC50,"Homo sapiens, 1 h",4.4 µM

# Source: US12466803B2 (priority 2021, dated 2025)
